Test systems include SNB-19 CNS; SF-268 CNS; COLO 205 colon; U251 CNS; SF-295 CNS; MOLT-4 leukemia; UACC-62 melanoma; A549 NSCLC; IGROV1 ovarian; SK-MEL-2 melanoma.
Holding throughout (test): NCI anticancer screen, dose series, 48 h

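Exposure lasted 48 hours, with cells grown in 96-well plates and compounds tested at five concentrations. GI50 marks 50% less growth. TGI: total growth inhibition.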

Turning to `NC(CSC1(c2ccc(Cl)cc2)c2ccccc2-c2ccccc21)C(=O)O` (stereo not given), the TGI amounted to 52.8 µM in the assay on SNB-19 CNS; 50.2 µM with SF-268 CNS; 28.9 µM in the assay on COLO 205 colon; 29.6 µM with U251 CNS; 37.7 µM in the assay with SF-295 CNS; 71.5 µM with MOLT-4 leukemia. The TGI in the assay on UACC-62 melanoma is 34.4 µM; in the assay on A549 NSCLC, > 100 µM; in the assay with IGROV1 ovarian, 29.4 µM; in the assay on SK-MEL-2 melanoma, 41.8 µM.

With `O=C1C(Cl)C(c2ccc([N+](=O)[O-])cc2)N1n1cnc2ccccc2c1=O` (stereo not given), the TGI in the assay on SNB-19 CNS is > 100 µM; in the assay with SF-268 CNS, 97.3 µM; in the assay on COLO 205 colon, > 100 µM; with U251 CNS, > 100 µM; in the assay with SF-295 CNS, 68.9 µM; in the assay with MOLT-4 leukemia, > 100 µM. The TGI in the assay with UACC-62 melanoma, in the assay on A549 NSCLC, in the assay with IGROV1 ovarian and with SK-MEL-2 melanoma was > 100 µM in each case.

Take `Cc1ccc(S(=O)(=O)OC2CSSCC2OS(=O)(=O)c2ccc(C)cc2)cc1` (stereo not given): the TGI with SNB-19 CNS was found to be 31.7 µM; in the assay on SF-268 CNS, 31.9 µM; with COLO 205 colon it was 26.6 µM; with U251 CNS, 27.2 µM; with SF-295 CNS it was 30.5 µM; with MOLT-4 leukemia, 7.61 µM. In addition, the TGI in the assay on UACC-62 melanoma is 24.6 µM; with A549 NSCLC, 31.9 µM; in the assay with IGROV1 ovarian it was 32.9 µM; in the assay with SK-MEL-2 melanoma, 29.1 µM.

For `O=c1sc(-c2nc3ccccc3[nH]2)c(/N=C/c2ccccc2)n1-c1ccccc1`, the TGI with SNB-19 CNS, in the assay with SF-268 CNS, in the assay with COLO 205 colon, in the assay on U251 CNS, with SF-295 CNS and with MOLT-4 leukemia was > 100 µM in each case. Further, the TGI in the assay with UACC-62 melanoma, in the assay with A549 NSCLC, in the assay on IGROV1 ovarian and with SK-MEL-2 melanoma was > 100 µM each time.

With `O=C(Nc1nc(-c2ccccc2Cl)cs1)c1cc(-c2ccc(Cl)cc2)nc2ccc(Cl)cc12`, the GI50 with SNB-19 CNS is 3.79 µM; in the assay with SF-268 CNS, 2370 nM; in the assay with COLO 205 colon, 33.6 µM; in the assay on U251 CNS, 3420 nM; in the assay on SF-295 CNS it was 3160 nM; with MOLT-4 leukemia, 3420 nM. Further, the GI50 is 2470 nM in the assay with UACC-62 melanoma, 39.2 µM in the assay with A549 NSCLC, 2.99 µM in the assay on IGROV1 ovarian and 7.81 µM with SK-MEL-2 melanoma. Besides, the TGI with SNB-19 CNS was 67.2 µM; with SF-268 CNS, 32.9 µM; in the assay on COLO 205 colon it was > 100 µM; in the assay with U251 CNS, 28.6 µM; with SF-295 CNS, 23.3 µM; in the assay on MOLT-4 leukemia it was > 100 µM. The TGI with UACC-62 melanoma was 26 µM; in the assay with A549 NSCLC, > 100 µM; with IGROV1 ovarian, > 100 µM; with SK-MEL-2 melanoma, > 100 µM.

For `CC/C(=C(/CC)c1ccc(O)cc1)c1ccc(O)cc1`, the GI50 is 10.6 µM in the assay on SNB-19 CNS; 5500 nM in the assay with SF-268 CNS; 6.31 µM in the assay with COLO 205 colon; 4910 nM in the assay on U251 CNS; 2730 nM in the assay with SF-295 CNS; 5290 nM in the assay with MOLT-4 leukemia. The GI50 in the assay on UACC-62 melanoma is 3890 nM; in the assay on A549 NSCLC it was 4.59 µM; with IGROV1 ovarian it was 12.4 µM; in the assay on SK-MEL-2 melanoma, 9.23 µM. Also, the TGI in the assay on SNB-19 CNS was 25.5 µM; in the assay on SF-268 CNS, 20.8 µM; in the assay on COLO 205 colon, 19.7 µM; in the assay on U251 CNS it was 18.2 µM; with SF-295 CNS, 11.6 µM; in the assay on MOLT-4 leukemia it was 66.4 µM. For the same compound, the TGI in the assay with UACC-62 melanoma came out at 16.8 µM; with A549 NSCLC it was 20.5 µM; with IGROV1 ovarian, 52.3 µM; in the assay with SK-MEL-2 melanoma, 26.7 µM.

In the case of `ClCc1ccc(-c2ccc(Cn3cnc4c(Cl)ncnc43)cc2)cc1`, the GI50 in the assay on SNB-19 CNS was 2.59 µM; with SF-268 CNS, 1130 nM; with COLO 205 colon it was 1.82 µM; in the assay on U251 CNS, 1810 nM; with SF-295 CNS, 1920 nM; in the assay with MOLT-4 leukemia, 1790 nM. The GI50 in the assay on UACC-62 melanoma is 1580 nM; with A549 NSCLC, 4.31 µM; with IGROV1 ovarian, 3.59 µM; in the assay on SK-MEL-2 melanoma, 3.7 µM. The TGI in the assay on SNB-19 CNS was 8.1 µM; in the assay with SF-268 CNS, 3.51 µM; in the assay with COLO 205 colon it was 4.27 µM; with U251 CNS it was 3.95 µM; in the assay with SF-295 CNS it was 4.89 µM; with MOLT-4 leukemia, > 100 µM. The TGI in the assay on UACC-62 melanoma was 3.44 µM; in the assay with A549 NSCLC, 17.4 µM; in the assay on IGROV1 ovarian it was 57.2 µM; with SK-MEL-2 melanoma, > 100 µM.

Consider `Cc1cc(N(CCC#N)CCC#N)ccc1CC1N=C(c2ccccc2)OC1=O` (stereo not given), for which the TGI with SNB-19 CNS, with SF-268 CNS, in the assay with COLO 205 colon, in the assay with U251 CNS, in the assay on SF-295 CNS and in the assay with MOLT-4 leukemia was > 100 µM in each case. Moreover, the TGI in the assay with UACC-62 melanoma, with A549 NSCLC, with IGROV1 ovarian and in the assay on SK-MEL-2 melanoma was > 100 µM throughout.

For the compound `COC1/C=C/OC2(C)Oc3c(C)c(O)c4c(O)c(c(C=NOC(c5ccccc5)c5ccccc5)c(O)c4c3C2=O)NC(=O)/C(C)=C/C=C/C(C)C(O)C(C)C(O)C(C)C(OC(C)=O)C1C` (stereo not given), the GI50 is 1.89 µM with SNB-19 CNS; 2250 nM with SF-268 CNS; 1.01 µM in the assay on COLO 205 colon; 975 nM in the assay with U251 CNS; 1210 nM in the assay on SF-295 CNS; 1800 nM in the assay on MOLT-4 leukemia. Further, the GI50 with UACC-62 melanoma is 935 nM; with A549 NSCLC, 1.58 µM; in the assay with IGROV1 ovarian, 1.72 µM; in the assay with SK-MEL-2 melanoma, 1.05 µM. For the same compound, the TGI is 6.87 µM in the assay with SNB-19 CNS; 8.23 µM in the assay on SF-268 CNS; 2.06 µM in the assay with COLO 205 colon; 1.96 µM in the assay on U251 CNS; 3.57 µM in the assay with SF-295 CNS; 8.03 µM with MOLT-4 leukemia. For the same compound, the TGI was found to be 1.97 µM in the assay on UACC-62 melanoma, 6.05 µM in the assay on A549 NSCLC, 5.54 µM in the assay on IGROV1 ovarian and 2.54 µM in the assay on SK-MEL-2 melanoma.

The record behind these values is PubChem BioAssay (NCI).
